From US12611398B2 (ORPHAI THERAPEUTICS INC., priority 2014, dated 2026)
Several values for one entry are separate records, joined by “and”; a condition that tells them apart may be missing. Identical values can stand only once. Entries after “also recorded” stand apart in the source; their conditions may differ. Like-named read-outs stand apart in the source and are kept apart here.

Key:
[1] = Rapamycin in lung and blood after oropharyngeal aspiration (OPA) and oral gavage, LC-MS/MS; type: in vivo, C57BL/6 mice
Procedure: Dosing: Each animal was weighed prior to dosing to determine the amount of dose to be administered. A single gavage dose was administered using a 100-μL glass syringe (Hamilton, Reno, Nev.) fitted with a ball-tipped 20-G stainless steel gavage dosing needle (Popper & Sons Inc., New Hyde Park, N.Y.). The dose administered to each animal was determined from the weight of the full syringe minus that of the empty syringe. The dosing time was recorded. Dosing of animals was spaced apart to allow blood collection at the appropriate times. The dose formulations administered to each group are shown below.
Each mouse was anesthetized with isoflurane and restrained with the mouth open. The tongue was held to one side of the mouth with forceps, and the dose was slowly injected into the distal part of the oral cavity. The nostrils were covered with a finger for two breaths to ensure aspiration (Rao et al., 2003).
Collection of Blood and Lung Samples: At study termination (1 or 72 h after dosing), mice were anesthetized by exposure to CO2, and blood was collected by cardiac puncture with dipotassium EDTA as anticoagulant. Lung tissue was excised and divided into the right and left lung. The left lung was used for analysis, and the right lung flash frozen in liquid nitrogen and stored at −70° C. for further analysis.
Triamcinolone was used as internal standard.
Lung homogenate was prepared by homogenization of weighed lung samples with 2.8-mm ball bearings in a homogenizer with tissue+deionized water (1:3 w/v) in a SPEX SamplePrep 2010 Geno/Grinder.
The concentrations of standards were arranged so that each standard came from an alternate stock standard. A six-point calibration curve, each made in triplicate, was employed for analyte quantitation. A simple linear regression model with or without weighting was employed for curve fitting. The concentration range determined was from 1-2000 ng/mL in blood and 2-2000 ng/mL in lung homogenate.
Thirty (30) μL of matrix, 30 μL of spiking solution (methanol for blanks and samples), 10 μL Internal standard solution (in MeOH) and 90 μL of MeOH were pipetted into microcentrifuge tubes, vortexed briefly, then centrifuged for 6 min at 10,000 RPM at −4° C. Aliquots (90 μL) of supernatant were transferred to LC vial inserts, and then analyzed by LC-MS/MS (Table 2).

[2] = Observation for adverse effects / clinical signs after dosing; type: in vivo, C57BL/6 mice; conditions: 1 mg/kg, up to 72 h following dosing
Procedure: The oral dose was formulated using pharmaceutical oral liquid formulation Rapamune Oral® (Pfizer). […] An additional group of 6 mice received vehicle only (10% ethanol in water). […] At the 72-h necropsy, blood was obtained by cardiac puncture and the lungs removed.
The time of dosing was recorded as 0. Animals in groups 2 and 3 were euthanized at 1 h after dosing.

[3] = tested on: phosphorylated S6 (mTOR pathway); experiment: S6 phosphorylation by western blot in AML cells; type: cell-based, human; conditions: 20 nM, 24 hours
[4] = tested on: phosphorylated S6 protein (biomarker for mTOR activity); experiment: S6 phosphorylation in mouse lung following oral and OPA administration; type: in vivo, C57bl/6 mice
Text: To validate this approach, we used the presence of phosphorylated S6 protein in murine lung tissue as a biomarker for mTOR activity. In the mouse strain used (C57b1/6), the mouse airway and alveolar epithelial cells have constitutively active (phosphorylated, “p”) S6 protein. The S6 protein is typically phosphorylated by S6K which is downstream of mTORC1 and is activated, for example downstream of growth factors such as epidermal growth factor (EGF), AKT, ERK, and RSK. mTORC1 promotes cell growth and proliferation by stimulating anabolic processes such as biosynthesis of lipids, proteins, and organelles, and suppressing catabolic processes such as autophagy.

[5] = tested on: Phospho-S6 Ribosomal Protein (Ser240/244); experiment: S6 phosphorylation in rat lung homogenate, western blot (S6-P/total S6); type: in vivo, Sprague-Dawley rats; conditions: inhalation, target dose 0.354 mg/kg
Procedure: Lungs samples from each animal were collected and snap frozen. The individual frozen lung samples were homogenized (Qiagen TissueLyser LT according to manufacturer's protocols) in 1×RIPA Buffer with protease and phosphatase inhibitors. […] The Western blot images were analyzed by NIH image) v1.48 to generate the respective antibody reactivity/intensity and create the ratio of S6 phosphorylation (S6-P) to total S6 intensities for each lung sample. The 56-P/total S6 ratios (y-axis) for sample organized by timepoint group (X-axis) were plotted on a one grouping variable scatter plot vertical graph (GraphPad, version 4.0), all samples in groups are represented by filled in black dots (●) on the graph and average is shown by the horizontal line between the dots within each respective group (FIG. 8B).

[6] = 28-day repeat daily dose inhalation toxicity and toxicokinetics, dog study 7300227; conditions: beagle, in vivo
Text: For the dog study, a positive flow delivery system (PFDS) consisting of a central plenum and delivery arms was utilized. The central plenum was of modular design with separate ports into which were attached 5 delivery arms fitted with oronasal exposure masks fitted with inlet and outlet tubes. The mask was fitted over the dog's muzzle in such a way that the nose was inside the mask, allowing entrance and exit of air. During exposure, animals wore a harness and were placed on a restraint platform. The harness was attached to two side poles on the platform in order to restrict lateral movement of the dog. The front part of the harness was loosely attached to a hook on the front of the platform to prevent the animal from turning around. […] For each dosing group, one set of animals (N=6) was dosed for 60 minutes each day for 28 consecutive days.

[7] = Extrapolation of rat and dog inhalation data to human dosing; conditions: extrapolated
[8] = Particle size distribution by laser diffraction; type: physicochemical
Procedure: For jet milling, a lab scale MCOne unit from Jetpharma was used with the following operating conditions: venturi pressure 2-4 bar, milling pressure 3-5 bar, feed rate 90 g/h. For wet polishing, feed suspensions were prepared using purified water. A microfluidics high pressure homogenizer was used for the size reduction step and the resulting suspension was spray-dried. Details of the wet polishing process are set forth below.
The high pressure homogenizer used for the size reduction step of the wet polishing process was a pilot-scale Microfluidics High Pressure Homogenizer equipped with an auxiliary processing module (200 micron) and a 100 micron interaction chamber was used. The unit was operated at ˜455 bar (˜30 bar in the intensifier module hydraulic pressure). After microfluidization the fluid was removed by spray drying to generate a dry powder. A laboratory scale spray dryer, SD45 (BÜCHI, model B-290 Advanced) was equipped with a two fluid nozzle (cap and diameter were 1.4 and 0.7 mm, respectively). Two cyclones in series were used (being the first the standard Buchi cyclone and the second the high-performance Buchi cyclone) to collect the dried product. The spray drying unit was operated with nitrogen and in single pass mode, i.e. without recirculation of the drying nitrogen. The aspirator, blowing nitrogen, was set at 100% of its capacity (flow rate at maximum capacity is approximately 40 kg/h). The flow rate of the atomization nitrogen was adjusted to a value in the rotameter of 40±5 mm. Before feeding the product suspension, the spray dryer was stabilized with purified water, during which the flow rate was adjusted to 6 ml/min (20% in the peristaltic pump). The inlet temperature was adjusted to achieve the target outlet temperature (45° C.). After stabilization of the temperatures, the feed of the spray dryer was commuted from purified water to the product suspension (keeping the same flow rate used during stabilization) and the inlet temperature once again adjusted in order to achieve the target outlet temperature. At the end of the stock suspension, the feed was once more commuted to purified water in order to rinse the feed line and perform a controlled shut down. The dry product in the collection flasks under both cyclones was weighed and the yield calculated as the mass percentage of the dry product in relation to the total solids in the suspension fed to the high pressure homogenizer.
Particle size distribution was analyzed by laser diffraction. Solid state characterization (for polymorphic form and purity) was performed by high pressure liquid chromatography (HPLC), X-ray powder diffraction (XRPD), and differential scanning calorimetry (mDSC). Water content was determined by the Karl Fischer method.

[9] = IV 10 mg/kg single dose, 24 hours; cited from earlier work
[10] = 24 hours after 14th dose, cited from earlier work
[11] = human, Rapamune NDA 21-110 and 21-083; cited from earlier work
[12] = lymphangioleiomyomatosis patients, McCormack et al. (2011); cited from earlier work
in vivo = conditions: Sprague-Dawley, rat
Procedure: (§1) A second repeat exposure study was conducted to evaluate the repeat dose toxicity and toxicokinetics of the dry powder formulation administered to SD rats and Beagle dogs for 28 days.
(§2) For the rat study, standard cylindrical flow-through nose-only inhalation chambers were utilized, as above. […] For each of the three dosing groups, one set of animals (N=36) were dosed for 300 minutes each day for 28 consecutive days. On Study Days 1 and 28, blood samples were taken from animals in subgroups of 6 at the following time points: (1) Predose, (2) Midway dosing, (3) Immediate post dosing, (4) 2 hours post dosing, (5) 4 hours post dosing, (6) 12 hours post dosing and (7) 24 hours post dosing.

[13] = tested on: TSC2 deficient TRI-AML101 cell line; experiment: Cell viability, CellTiter-Glo luminescence assay, 10 point dose response; conditions: 72 hours after compound addition, relative to DMSO control
Procedure: Two thousand cells in 50 uL of growth media (DMEM, 10% FBS, and 1% Penicillin/Streptomycin) were plated per well in a 96 well plate. […] 72 hours after compound addition, relative cell viability was determined by CellTiter-Glo® luminescence assay (Promega) and expressed as a percentage relative to vehicle (DMSO) treated control cells.

[14] = 28-day repeat daily dose inhalation toxicity and toxicokinetics, rat study 7300225; conditions: for Max blood levels: rat, average of D28
Procedure: as §1, §2

[15] = 2012 meta-analysis of published trials; cited from earlier work
[16] = emitted dose 87 ug, repeat inhaled daily dose 35 ug
[17] = emitted dose 175 ug, repeat inhaled daily dose 70 ug

Structure (SMILES): CO[C@H]1C[C@@H]2CC[C@@H](C)[C@@](O)(O2)C(=O)C(=O)N2CCCC[C@H]2C(=O)O[C@H]([C@H](C)C[C@@H]2CC[C@@H](O)[C@H](OC)C2)CC(=O)[C@H](C)/C=C(\C)[C@@H](O)[C@@H](OC)C(=O)[C@H](C)C[C@H](C)/C=C/C=C/C=C/1C [Rapamycin]
- Rapamycin in Blood ([1]; OPA 1 mg/kg, 72 h): below the limit of quantitation; also recorded: undetectable
- Blood concentration ([1]; OPA 1 mg/kg, 72 h post-dose, individual animal): <ELOQ
- Lung concentration ([1]; gavage (Rapamune Oral) 1 mg/kg, 1 h post-dose, individual animal, 1 mg/kg): <LOQ
- rapamycin in lung or blood ([1]; oral (gavage) 1 mg/kg, 72 hrs): undetectable
- adverse effects / clinical signs [2]: No adverse effects were observed; also recorded: No significant clinical signs were observed
- S6 phosphorylation [3]: potently inhibits S6 phosphorylation
- level of phosphorylated S6 (pS6) in lung ([4]; 1 mg/kg OPA, 1 hr): reduced substantially
- level of phosphorylated S6 (pS6) in lung ([4]; 1 mg/kg OPA, 72 hr): remained suppressed
- level of phosphorylated S6 (pS6) in lung ([4]; 1 mg/kg oral gavage, 1 hr): reduced substantially
- S6 phosphorylation in lung tissue [5]: Inhibits S6 Phosphorylation
- NOAEL at 28 days [6]: 0.0134 mg/kg/day
- Blood trough levels [7, 16]: 0.15 ng/mL
- Lung 24 hr trough levels [7, 16]: 2 ng/g
- Max blood levels [7, 16]: 0.65 ng/mL
- Blood trough levels [7, 17]: 0.3 ng/mL
- Lung 24 hr trough levels [7, 17]: 4 ng/g
- Max blood levels [7, 17]: 1.3 ng/mL
- PSD Dv10 ([8]; jet milling): 1.5 μm and 1.51 μm
- PSD Dv50 ([8]; jet milling): 2.7 μm and 2.74 μm
- PSD Dv90 ([8]; jet milling): 4.9 μm and 4.91 μm
- PSD Dv10 ([8]; wet polishing): 1.0 μm and 1.05 μm
- PSD Dv50 ([8]; wet polishing): 2.4 μm and 2.42 μm
- PSD Dv90 ([8]; wet polishing): 5.0 μm and 4.97 μm
- Rapamycin in Blood [9]: 31 ng/mL
- Rapamycin in Lung [9]: 721 ng/g
- Rapamycin in Blood ([10]; IV 0.04 mg/kg/day): 9.4 ng/mL
- Rapamycin in Lung ([10]; IV 0.04 mg/kg/day): 219 ng/g
- Rapamycin in Blood ([10]; IV 0.08 mg/kg/day): 15.0 ng/mL
- Rapamycin in Lung ([10]; IV 0.08 mg/kg/day): 457 ng/g
- Rapamycin in Blood ([10]; IV 0.40 mg/kg/day): 19.6 ng/mL
- Rapamycin in Lung ([10]; IV 0.40 mg/kg/day): 868 ng/g
- Rapamycin in Blood ([10]; oral 0.4 mg/kg/day): 0.8 ng/mL
- Rapamycin in Lung ([10]; oral 0.4 mg/kg/day): 42 ng/g
- Rapamycin in Blood ([10]; oral 0.8 mg/kg/day): 2.1 ng/mL
- Rapamycin in Lung ([10]; oral 0.8 mg/kg/day): 59 ng/g
- clearance [11]: 0.0003 min⁻¹
- blood concentrations [12]: 5 to 15 ng/mL
- NOAEL at 28 days (in vivo): 8.91 mg/kg/day
- lowest concentration inhibiting viability [13]: 0.05 nM
- respiratory function ([14]; nose-only inhalation): no changes in respiratory function
- Max blood levels ([14]; emitted dose 50 ug, repeat inhaled daily dose 5 ug): 7.6 ng/mL
- Max blood levels ([14]; emitted dose 1425 ug, repeat inhaled daily dose 143 ug): 70.5 ng/mL
- Max blood levels ([14]; emitted dose 2850 ug, repeat inhaled daily dose 285 ug): 77.8 ng/mL

Structure (SMILES): CO[C@H]1C[C@@H]2CC[C@@H](C)[C@@](O)(O2)C(=O)C(=O)N2CCCC[C@H]2C(=O)O[C@H]([C@H](C)C[C@@H]2CC[C@@H](OCCO)[C@H](OC)C2)CC(=O)[C@H](C)/C=C(\C)[C@@H](O)[C@@H](OC)C(=O)[C@H](C)C[C@H](C)/C=C/C=C/C=C/1C [everolimus]
- cancer patients experiencing mild grade pulmonary toxicity [15]: 10%

Structure (SMILES): CO[C@H]1C[C@@H]2CC[C@@H](C)[C@@](O)(O2)C(=O)C(=O)N2CCCC[C@H]2C(=O)O[C@H]([C@H](C)C[C@@H]2CC[C@@H](OC(=O)C(C)(CO)CO)[C@H](OC)C2)CC(=O)[C@H](C)/C=C(\C)[C@@H](O)[C@@H](OC)C(=O)[C@H](C)C[C@H](C)/C=C/C=C/C=C/1C [temsirolimus]
- cancer patients experiencing mild grade pulmonary toxicity [15]: 10%
